Source: ChEMBL document CHEMBL1687866, “Efficient microwave-assisted synthesis of novel 3-aminohexahydrocoumarin derivatives and evaluation on their cytotoxicity” (Eur J Med Chem, 2011)
In brackets after ≈: the same amount, converted by molar mass.

Key:
[1] = Cytotoxicity against human SW1116 cells assessed as cell viability rate at 10 ug/ml after 24 hrs by MTT assay; type: functional, SW 1116
[2] = Cytotoxicity against human SW1116 cells assessed as cell viability rate at 0.1 ug/ml after 24 hrs by MTT assay; type: functional, SW 1116
[3] = Cytotoxicity against human SW1116 cells assessed as cell viability rate at 1 ug/ml after 24 hrs by MTT assay; type: functional, SW 1116
SGC-7901 = experiment: Cytotoxicity against human SGC7901 cells after 20 hrs by MTT assay; type: functional, cell-based; conditions: SGC-7901, 20 h

SMILES | Cell viability [1] | Cell viability [2] | Cell viability [3] | IC50 (SGC-7901)
CC1(C)CC(=O)C2=C(C1)OC(=O)C(NC(=O)c1ccccc1)C2c1ccco1 (stereo not drawn) | 42.02% | 79.26% | 67.67% | 0.259 µg/mL (≈ 0.683 µM)
CC1(C)CC(=O)C2=C(C1)OC(=O)C(NC(=O)c1ccccc1)C2c1ccc(F)cc1 (mixture of isomers) | 59.03% | 95.76% | 91.39% | 0.436 µg/mL
CC1(C)CC(=O)C2=C(C1)OC(=O)C(NC(=O)c1ccccc1)C2c1ccc(Cl)cc1 (mixture of isomers) | 64.34% | 77.19% | 77.81% | > 100 µg/mL
CC1(C)CC(=O)C2=C(C1)OC(=O)C(NC(=O)c1ccccc1)C2c1ccc([N+](=O)[O-])cc1 (mixture of isomers) | 46.6% | 107.38% | 73.4% | 0.905 µg/mL
CC1(C)CC(=O)C2=C(C1)OC(=O)C(NC(=O)c1ccccc1)C2c1ccccc1Cl (mixture of isomers) | 85.08% | 114.23% | 97.92% | 0.239 µg/mL
CC1(C)CC(=O)C2=C(C1)OC(=O)C(NC(=O)c1ccccc1)C2c1ccccc1Br (mixture of isomers) | 55.74% | 102.11% | 99.3% | 5.13 µg/mL
Cc1ccc(C2C3=C(CC(C)(C)CC3=O)OC(=O)C2NC(=O)c2ccccc2)cc1 (mixture of isomers) | 82.67% | 77.88% | 83.63% | 2.69 µg/mL
COc1cc(C2C3=C(CC(C)(C)CC3=O)OC(=O)C2NC(=O)c2ccccc2)cc(OC)c1OC (mixture of isomers) | 92.18% | 91.48% | 81.59% | 0.158 µg/mL
CC1(C)CC(=O)C2=C(C1)OC(=O)C(NC(=O)c1ccccc1)C2c1cccs1 (mixture of isomers) | 50.51% | 94.51% | 104.31% | 0.612 µg/mL
O=C1CCCC2=C1C(c1ccc(F)cc1)C(NC(=O)c1ccccc1)C(=O)O2 (mixture of isomers) | 83.22% | 90.86% | 91.07% | 0.812 µg/mL
O=C1CCCC2=C1C(c1ccc(Cl)cc1)C(NC(=O)c1ccccc1)C(=O)O2 (mixture of isomers) | 69.78% | 91.48% | 89.77% | > 100 µg/mL
O=C1CCCC2=C1C(c1ccc([N+](=O)[O-])cc1)C(NC(=O)c1ccccc1)C(=O)O2 (mixture of isomers) | 55.22% | 73.6% | 100.6% | 1.09 µg/mL
O=C1CCCC2=C1C(c1ccccc1Cl)C(NC(=O)c1ccccc1)C(=O)O2 (mixture of isomers) | 87.56% | 109.5% | 102.59% | 0.226 µg/mL
O=C1CCCC2=C1C(c1ccccc1Br)C(NC(=O)c1ccccc1)C(=O)O2 (mixture of isomers) | 99.27% | 50.51% | 92.19% | 3.94 µg/mL
Cc1ccc(C2C3=C(CCCC3=O)OC(=O)C2NC(=O)c2ccccc2)cc1 (mixture of isomers) | 107.87% | 113.97% | 106.66% | 1.86 µg/mL
COc1cc(C2C3=C(CCCC3=O)OC(=O)C2NC(=O)c2ccccc2)cc(OC)c1OC (mixture of isomers) | 94.07% | 110.34% | 109.73% | 1.21 µg/mL
O=C1CCCC2=C1C(c1cccs1)C(NC(=O)c1ccccc1)C(=O)O2 (mixture of isomers) | 69.73% | 79.97% | 81.65% | 0.701 µg/mL
O=C1CCCC2=C1C(c1ccco1)C(NC(=O)c1ccccc1)C(=O)O2 (mixture of isomers) | 74.22% | 95.53% | 97.92% | 1.3 µg/mL
COc1cccc2c1C(=O)c1c(O)c3c(c(O)c1C2=O)C[C@@](O)(C(=O)CO)C[C@@H]3O[C@H]1C[C@H](N)[C@H](O)[C@H](C)O1.Cl [DOXORUBICIN HYDROCHLORIDE] | 67.34% | – | – | –
